From the METLIN SMRT retention time set (Domingo-Almenara et al. 2019)

Experiment: gradient 5% acetonitrile 3 min, to 50% in 2 min, to 85% in 15 min, held 3 min, 100 µL/min
Details: column: Zorbax Extend-C18 2.1 x 50 mm; eluents: water / acetonitrile, 0.1% formic acid
How it was run: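 Retention times of pure standards were taken from adduct peaks that were selected by computer and manually inspected. Over 3 months, mixtures of ~100 molecules were run by HPLC–quadrupole time-of-flight mass spectrometry in positive and negative ionization mode. The Zorbax Extend-C18 column (2.1 × 50 mm, 1.8 μm) ran at 100 μL/min in water and acetonitrile, each containing 0.1% formic acid, with 40 μL dead volume and 900 μL dwell volume.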

Cc1cccc(-c2noc(-c3cccnc3N3CCN(c4ccccc4)CC3)n2)c1
RP-LC retention time: 1400 s

Cc1nc(-c2noc(-c3ccc(F)cc3)n2)cn1CC(=O)NCc1ccc(F)cc1
RP-LC retention time: 832 s

CCN1CCN(CCNC(=O)c2ccc3c(c2)N(C)C(=O)C2CCCCN32)CC1 (centres undefined)
RP-LC retention time: 579 s

Cc1nn2c(CNC(=O)c3ccccc3Br)c(C)nc2s1
RP-LC retention time: 610 s

Cc1ccccc1-c1nnc(CSc2nnc(NC(=O)C(C)C)s2)o1
RP-LC retention time: 843 s

CC1CCCN(S(=O)(=O)c2ccc(-c3nnc(C(C)C)o3)o2)C1 (centres undefined)
RP-LC retention time: 977 s

O=S(=O)(c1cccc(Cl)c1)N1CCC(c2noc(-c3ccccc3)n2)CC1
RP-LC retention time: 1160 s

Cc1ccc(-c2csc(-n3nc(C)c(CC(=O)N4CCc5ccccc5C4)c3C)n2)cc1
RP-LC retention time: 1310 s

O=C(NCCn1c(=O)n(Cc2ccc(F)cc2)c2cccnc21)c1cnccn1
RP-LC retention time: 719 s

CCc1noc([C@@H]2CC(F)(F)CN2C(=O)CCc2c(C)noc2C)n1
RP-LC retention time: 775 s

C#Cc1cccc(NC(=O)c2ccc(Cl)cc2Cl)c1
RP-LC retention time: 1060 s

Cc1ccn2cc(C(=O)N3CCN(c4ccccc4Cl)CC3)nc2c1
RP-LC retention time: 722 s

CCCCCNC(=O)c1cn(-c2ccc(NC(C)=O)cn2)cn1
RP-LC retention time: 690 s

COc1cccc(Cn2cc(S(=O)(=O)N3CCCC3)ccc2=O)c1
RP-LC retention time: 779 s

CCn1c(SC)nnc1-c1nn(C)c2c1CN(C(=O)Cc1ccc(F)cc1)CC2
RP-LC retention time: 771 s

O=C(CSc1nnc2c3cc(-c4ccc(F)cc4)nn3ccn12)Nc1ccccc1Br
RP-LC retention time: 935 s

COCCN1C(=O)Cc2ccccc2C1C(=O)NCc1cccc(Cl)c1 (centres undefined)
RP-LC retention time: 766 s

COc1ccc(-c2csc(Nc3cccnc3)n2)cc1OC
RP-LC retention time: 620 s

CN(C)S(=O)(=O)c1ccc(C(=O)Nc2nnc(-c3cc4ccccc4o3)o2)cc1
RP-LC retention time: 789 s

Cc1ccc(Nc2c(-c3ccc(Cl)cc3)nc3ccccn23)cc1
RP-LC retention time: 787 s

CCN1CCn2cc(S(=O)(=O)Nc3ccc(F)cc3)cc2C1=O
RP-LC retention time: 696 s

Cc1nc(C)c(C(=O)N2CCCC2c2nc(CCOCC3CC3)no2)s1 (centres undefined)
RP-LC retention time: 732 s

O=C(NCc1ccc(F)cc1)Nc1c(-c2ccccc2)nc2ccccn12
RP-LC retention time: 639 s

Cc1noc(-c2ccc(OC3CN(C(=O)Cc4ccsc4)C3)cc2)n1
RP-LC retention time: 826 s

O=C(Nc1ncc(-c2ccccc2)s1)c1ccc(S(=O)(=O)N2CCCCC2)cc1
RP-LC retention time: 1040 s

COc1ccc(N2CC(c3noc(-c4ccc(OC)cc4C)n3)CC2=O)cc1 (centres undefined)
RP-LC retention time: 992 s

O=C(NC1CCCCCC1)C1=C2CCCN2c2ccc(F)cc2S1(=O)=O
RP-LC retention time: 970 s

O=C(Nc1ccccc1F)C1CCN(S(=O)(=O)c2cc(-c3noc(C4CCC4)n3)cs2)CC1
RP-LC retention time: 958 s

COCC(=O)NC/C=C/c1ccc2ncnc(Nc3ccc(Oc4ccc(C)nc4)c(C)c3)c2c1
RP-LC retention time: 622 s

Cc1ccc(CNC(=O)c2cn(C)c3c(c(C)nn3-c3ccc(F)cc3)c2=O)o1
RP-LC retention time: 803 s

CCCn1ccc2sc(C)c(C(=O)NCc3cccc(Cl)c3)c2c1=O
RP-LC retention time: 990 s

Cc1ccc2c(Nc3ccc(S(N)(=O)=O)cc3)c(C(=O)N3CCSCC3)cnc2n1
RP-LC retention time: 1370 s

O=C(CSCc1ccccc1)N1CCC(c2nnc(-c3ccco3)s2)CC1
RP-LC retention time: 837 s

O=C(CC1CCCCC1)NC1CCN(c2cc(-c3cccnc3)[nH]n2)CC1
RP-LC retention time: 633 s

Cc1ccc(-c2nnc(-c3cccc(S(=O)(=O)N4CCSCC4)c3)o2)cc1
RP-LC retention time: 1100 s

O=C(C1CCN(c2nn3c(=O)c4c(nc3s2)CCCC4)CC1)N1CCN(c2ncccn2)CC1
RP-LC retention time: 672 s

Cc1noc(-c2ccc(=O)n(C(C)C(=O)NCc3cccs3)c2)n1 (centres undefined)
RP-LC retention time: 646 s

Cc1ccccc1Cn1nc2n(c1=O)CCCCC2
RP-LC retention time: 772 s

O=C(O)Cn1c(C(=O)Nc2nc(-c3ccccc3Cl)cs2)cc2ccccc21
RP-LC retention time: 1130 s

CCOc1ccc(NS(=O)(=O)c2cc(-c3c(C)noc3NC(C)=O)ccc2OC)cc1
RP-LC retention time: 773 s

COc1ccc(OC)c(CNC(=O)c2c(O)c3cccnc3[nH]c2=O)c1
RP-LC retention time: 921 s

CS(=O)(=O)N1CCC(C(=O)NC2CCCC(OC(=O)Nc3ccc(F)cc3)C2)CC1 (centres undefined)
RP-LC retention time: 704 s

CCS(=O)(=O)N1CCC2(CC1)CN(Cc1ccc(OC)cc1)C2=O
RP-LC retention time: 745 s

Cc1ccc(-c2noc(Cc3nnc(-c4cccc(Cl)c4)o3)n2)cc1C
RP-LC retention time: 1210 s
